Where two headings read alike, the source gives them in different places.
Key:
[1] = CHEX/H2O partition coefficient, experimental, cited from earlier work; for Exp (log D): Table 3; for logD Exp (logD): Table 4
[2] = Table 5; free energy of hydration, GAFF prediction taken from literature; cited from earlier work
[3] = Free energy of hydration predicted by General Amber Force Field (GAFF), from literature; conditions: Table 5; error of GAFF hydration free energy vs experiment
[4] = experimental, cited from earlier work; for Exp (hydration): Table 5
[5] = implicit solvent model, values received; cited from earlier work
[6] = Free energy of hydration predicted by polarizable AMOEBA force field, from literature; conditions: Table 5; error of AMOEBA hydration free energy vs experiment
[7] = Free energy of hydration by Polarizable Continuum Model (PCM); conditions: absolute error vs Exp (hydration)
Outline: (§1)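 Implicit-solvent predictions of hydration free energy. MolPro supplied the COSMO solvation energies across the dataset. Predicted SMD and PCM values were received rather than computed here. Coverage for SMD, PCM and COSMO-RS matches the QM-parameterized force-field subset.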

[8] = Free energy of hydration by Free Energy Machine Learning Model (FML); conditions: absolute error vs Exp (hydration)
Description: Machine learning models can be used for free energy determination.

[9] = Free energy of hydration by COSMO-RS
Outline: as §1

[10] = Free energy of solvation in cyclohexane predicted with the QM-parameterized force field model (ARROW FF), MD and PIMD; conditions: Table 4; for CHEX Arrow MD Error: error of MD cyclohexane solvation free energy vs experiment; for CHEX Arrow PIMD4 Error: error of PIMD4 cyclohexane solvation free energy vs experiment
Outline: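 Solute–cyclohexane interactions decoupled over 15 λ points with soft-core scaling, in MD and path-integral simulations under NPT at 1 atm using PME electrostatics and 9 Å cutoffs. Each window had 50 ps equilibration and 1 ns production; free energies from BAR and TI.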

[11] = CHEX/H2O partition coefficient (log D) predicted with the QM-parameterized force field model (ARROW FF)
Outline: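 Cyclohexane/water partition coefficients were predicted by molecular simulation with a QM-parameterized force field, with bonded force constants and equilibrium values fitted to MP2/aug-cc-pVTZ energies. Solutes carried neutral functional groups, and results from four independent groups were averaged.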

[12] = Free energy of hydration predicted with the QM-parameterized force field model (ARROW FF), classical MD and PIMD simulation in a water box; conditions: for Arrow error: Table 5, error of Arrow PIMD8 hydration free energy vs experiment; for Arrow PIMD8 Error: absolute error vs Exp (hydration)
Outline: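 Classical and PIMD runs (MTS integrator, MTTK barostat at 1 atm) followed minimization and 50 ps equilibration, with 1 ns NPT production per window. Fifteen unequally spaced lambda windows removed all solute-solvent interactions simultaneously in a 32 Å water box. Hydration free energy computed by Bennett acceptance ratio and thermodynamic integration.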

[13] = Free energy of hydration by COSMO implicit solvent model (MolPro ver. 2012); conditions: absolute error vs Exp (hydration)
Outline: as §1

[14] = Table 5; free energy of hydration, AMOEBA prediction taken from literature; cited from earlier work
[15] = experimental, cited from earlier work
[16] = Free energy of hydration by Solvation Model Dielectric (SMD) implicit solvent model; conditions: absolute error vs Exp (hydration)
Outline: as §1

[17] = implicit solvent model, values received; cited from earlier work; remark: listed apart in the source
[18] = experimental; cited from earlier work
[19] = Bulk solvent properties (density, heat of vaporization, self-solvation) predicted with the QM-parameterized force field model (AFF MD / PIMD); conditions: within chemical accuracy
Description: Particle-Mesh Ewald (PME) algorithm was used to compute the electrostatic interactions. A 32×32×32 grid mesh and 5th power spline interpolation order can be used to compute the inverse PME sum. 9 Å cutoffs were used to compute the direct PME sum as well as the exchange and dispersion interactions. Bulk corrections were applied to account for distance cut-off of dispersion interactions. Solvation free energies were computed by decoupling the interactions between the solute and the solvent molecules. Electrostatic, exchange-repulsion and dispersion interactions were switched off simultaneously using a lambda-dependent scaling (a scaling factor power=2 was used) and a soft-coring algorithm (maximal soft-coring radius=1.5 Å, soft-coring radius scaling factor power=1). 15 lambda points unequally spaced (X=0, 0.05, 0.1, 0.2, 0.3, 0.4, 0.5, 0.6, 0.7, 0.75, 0.8, 0.85, 0.9, 0.95, 1.0) were used to decouple the solute-solvent intermolecular interactions.
In some simulations of the QM-parameterized force field molecular simulation process, energy minimization (10,000 steps) using the steepest descent algorithm was initially performed on all the simulation systems. This was followed by a 50 ps equilibration and 1 ns production runs in the isothermal-isobaric ensemble (NPT). […] Pressure was maintained at 1 atm using a MTTK barostat (relaxation time=5 ps). […]

[20] = Table 3, free energy of hydration
[21] = Table 4, neutral amino-acid analogues
[22] = Table 3, absolute error of MD hydration free energy vs experiment
[23] = Table 3, absolute error of PIMD8 hydration free energy vs experiment
[24] = Table 4, error of MD hydration free energy vs experiment
[25] = Table 4, error of PIMD8 hydration free energy vs experiment
[26] = Table 3, free energy of solvation in cyclohexane
[27] = Table 4, solvation free energy in cyclohexane

SMILES: C [Methane]
- Exp (log D) [1]: 1.33
- logD Exp (logD) [1]: 1.33
- GAFF [2]: 9.2 kJ/mol
- GAFF error [3]: 1 kJ/mol
- water Exp (hydration) [4, 20]: 8.2 kJ/mol
- water Exp (hydration) [4, 21]: 8.2 kJ/mol
- Exp (hydration) ([4]; free energy of hydration): 8.2 kJ/mol
- PCM free energy of hydration [5]: -0.418 kJ/mol
- AMOEBA error [6]: 0.962 kJ/mol
- PCM Error [7]: 8.62 kJ/mol
- FML error [8]: 6.65 kJ/mol
- COSMO-RS error [9]: 0.837 kJ/mol
- CHEX Arrow MD Error [10]: 0.042 kJ/mol
- CHEX Arrow PIMD4 Error [10]: 0.17 kJ/mol
- log D Arrow MD Error [11]: 0.25
- log D Arrow PIMD Error [11]: 0.09
- logD Arrow MD Error [11]: 0.25
- logD Arrow PIMD Error [11]: 0.09
- water Arrow MD Error [12, 22]: 1.34 kJ/mol
- water Arrow PIMD8 Error [12, 23]: 0.38 kJ/mol
- water Arrow MD Error [12, 24]: 1.34 kJ/mol
- water Arrow PIMD8 Error [12, 25]: 0.38 kJ/mol
- Arrow error [12]: 0.38 kJ/mol
- Arrow PIMD8 Error [12]: 0.38 kJ/mol
- COSMO/Molpro Error [13]: 9.83 kJ/mol
- AMOEBA [14]: 7.24 kJ/mol
- CHEX Exp (solvation) [15, 26]: 0.586 kJ/mol
- CHEX Exp (solvation) [15, 27]: 0.586 kJ/mol
- SMD Error [16]: 1 kJ/mol
- SMD free energy of hydration [17]: 9.2 kJ/mol

SMILES: CCCO [Propanol]
- GAFF [2]: -13.1 kJ/mol
- GAFF error [3]: 7.53 kJ/mol
- water Exp (hydration) [4, 20]: -20.6 kJ/mol
- Exp (hydration) ([4]; free energy of hydration): -20.6 kJ/mol
- PCM free energy of hydration [5]: -13 kJ/mol
- AMOEBA error [6]: 0.29 kJ/mol
- PCM Error [7]: 7.61 kJ/mol
- FML error [8]: 0.46 kJ/mol
- COSMO-RS error [9]: 0.502 kJ/mol
- water Arrow MD Error [12, 22]: 2.43 kJ/mol
- water Arrow PIMD8 Error [12, 23]: 0.753 kJ/mol
- Arrow error [12]: 0.753 kJ/mol
- Arrow PIMD8 Error [12]: 0.753 kJ/mol
- COSMO/Molpro Error [13]: 5.44 kJ/mol
- AMOEBA [14]: -20.3 kJ/mol
- CHEX Exp (solvation) [15, 26]: -11.4 kJ/mol
- SMD Error [16]: 3.43 kJ/mol
- SMD free energy of hydration [17]: -17.2 kJ/mol

SMILES: C1CCCCC1 [Cyclohexane]
- Exp (log D) [1]: 4.14
- water Exp (hydration) [4, 20]: 5.15 kJ/mol
- Hydration [4]: 5.02 kJ/mol
- PCM free energy of hydration [5]: -0.418 kJ/mol
- PCM Error [7]: 5.56 kJ/mol
- COSMO-RS error [9]: 0.418 kJ/mol
- Density [18]: 0.790 g/cc
- Hvap [18]: 33.1 kJ/mol
- self-solvation [18]: -18.5 kJ/mol
- log D Arrow MD Error [11]: 0.89
- log D Arrow PIMD Error [11]: 0.36
- water Arrow MD Error [12, 22]: 4.31 kJ/mol
- water Arrow PIMD8 Error [12, 23]: 0.418 kJ/mol
- Arrow PIMD8 Error [12]: 0.418 kJ/mol
- COSMO/Molpro Error [13]: 7.15 kJ/mol
- CHEX Exp (solvation) [15, 26]: -18.5 kJ/mol
- SMD Error [16]: 0.711 kJ/mol
- agreement of bulk energetics [19]: ≤ 2.1 kJ/mol
- SMD free energy of hydration [17]: 5.86 kJ/mol

SMILES: CCC [Propane]
- Exp (log D) [1]: 2.93
- logD Exp (logD) [1]: 2.93
- GAFF [2]: 10.7 kJ/mol
- GAFF error [3]: 2.51 kJ/mol
- water Exp (hydration) [4, 20]: 8.2 kJ/mol
- water Exp (hydration) [4, 21]: 8.2 kJ/mol
- Exp (hydration) ([4]; free energy of hydration): 8.2 kJ/mol
- PCM free energy of hydration [5]: -0.418 kJ/mol
- AMOEBA error [6]: 1.13 kJ/mol
- PCM Error [7]: 8.62 kJ/mol
- FML error [8]: 2.09 kJ/mol
- COSMO-RS error [9]: 0.21 kJ/mol
- CHEX Arrow MD Error [10]: 0.962 kJ/mol
- CHEX Arrow PIMD4 Error [10]: 0.21 kJ/mol
- log D Arrow MD Error [11]: 0.31
- log D Arrow PIMD Error [11]: 0.04
- logD Arrow MD Error [11]: 0.31
- logD Arrow PIMD Error [11]: 0.04
- water Arrow MD Error [12, 22]: 2.76 kJ/mol
- water Arrow PIMD8 Error [12, 23]: 0 kJ/mol
- water Arrow MD Error [12, 24]: 2.76 kJ/mol
- water Arrow PIMD8 Error [12, 25]: 0 kJ/mol
- Arrow error [12]: 0 kJ/mol
- Arrow PIMD8 Error [12]: 0 kJ/mol
- COSMO/Molpro Error [13]: 10.2 kJ/mol
- AMOEBA [14]: 7.07 kJ/mol
- CHEX Exp (solvation) [15, 26]: -8.49 kJ/mol
- CHEX Exp (solvation) [15, 27]: -8.49 kJ/mol
- SMD Error [16]: 0.669 kJ/mol
- SMD free energy of hydration [17]: 7.53 kJ/mol

SMILES: c1ccncc1 [pyridine]
- GAFF [2]: -14.4 kJ/mol
- GAFF error [3]: 5.19 kJ/mol
- water Exp (hydration) [4, 20]: -19.6 kJ/mol
- Exp (hydration) ([4]; free energy of hydration): -19.6 kJ/mol
- PCM free energy of hydration [5]: -13.4 kJ/mol
- AMOEBA error [6]: 3.77 kJ/mol
- PCM Error [7]: 6.23 kJ/mol
- FML error [8]: 0.879 kJ/mol
- COSMO-RS error [9]: 3.05 kJ/mol
- water Arrow MD Error [12, 22]: 3.51 kJ/mol
- water Arrow PIMD8 Error [12, 23]: 0.33 kJ/mol
- Arrow error [12]: 0.33 kJ/mol
- Arrow PIMD8 Error [12]: 0.33 kJ/mol
- COSMO/Molpro Error [13]: 8.54 kJ/mol
- AMOEBA [14]: -23.4 kJ/mol
- CHEX Exp (solvation) [15, 26]: -18 kJ/mol
- SMD Error [16]: 2.05 kJ/mol
- SMD free energy of hydration [17]: -17.6 kJ/mol

SMILES: CCO [Ethanol]
- GAFF [2]: -14.4 kJ/mol
- GAFF error [3]: 6.53 kJ/mol
- water Exp (hydration) [4, 20]: -21 kJ/mol
- water Exp (hydration) [4, 21]: -21 kJ/mol
- Exp (hydration) ([4]; free energy of hydration): -21 kJ/mol
- PCM free energy of hydration [5]: -13 kJ/mol
- AMOEBA error [6]: 1.34 kJ/mol
- PCM Error [7]: 7.99 kJ/mol
- FML error [8]: 0.33 kJ/mol
- COSMO-RS error [9]: 0.29 kJ/mol
- CHEX Arrow MD Error [10]: 0.21 kJ/mol
- CHEX Arrow PIMD4 Error [10]: 0.502 kJ/mol
- water Arrow MD Error [12, 22]: 3.1 kJ/mol
- water Arrow PIMD8 Error [12, 23]: 0.29 kJ/mol
- water Arrow MD Error [12, 24]: 3.1 kJ/mol
- water Arrow PIMD8 Error [12, 25]: 0.29 kJ/mol
- Arrow error [12]: 0.29 kJ/mol
- Arrow PIMD8 Error [12]: 0.29 kJ/mol
- COSMO/Molpro Error [13]: 4.98 kJ/mol
- AMOEBA [14]: -19.6 kJ/mol
- CHEX Exp (solvation) [15, 26]: -10.8 kJ/mol
- CHEX Exp (solvation) [15, 27]: -10.8 kJ/mol
- SMD Error [16]: 3.39 kJ/mol
- SMD free energy of hydration [17]: -17.6 kJ/mol
